Laboratory results from paper PMC9571063 (Molecules, 2022).

Assays:
[1] = molecular target: T1, YANK3 (Homo sapiens, UniProt Q86UX6); test: KINOMEscan; format: binding; details: read-out: Percent Control
T1 construct: purchased Eurofins (KINOMEscan, DiscoverX)

[2] = molecular target: T2, TRKC (Homo sapiens, UniProt Q16288); test: KINOMEscan; format: binding; details: read-out: Percent Control
T2 construct: purchased Eurofins DiscoverX KINOMEscan (scanMAX 468)

[3] = molecular target: T3, SGK3 (Homo sapiens, UniProt Q96BR1); test: KINOMEscan; format: binding; details: read-out: Percent Control
T3 construct: purchased Eurofins DiscoverX KINOMEscan (scanMAX 468)

[4] = molecular target: T4, EGFR(E746-A750del) (Homo sapiens, UniProt P00533, DEL746-750); test: KINOMEscan; format: binding; details: read-out: Percent Control
T4 construct: purchased Eurofins DiscoverX KINOMEscan (scanMAX 468)

[5] = molecular target: T5, GRK7 (Homo sapiens, UniProt Q8WTQ7); test: KINOMEscan; format: binding; details: read-out: Percent Control
T5 construct: purchased Eurofins DiscoverX KINOMEscan (scanMAX 468)

[6] = molecular target: T6, MAK (Homo sapiens, UniProt P20794); test: KINOMEscan; format: binding; details: read-out: Percent Control
T6 construct: purchased Eurofins DiscoverX KINOMEscan (scanMAX 468)

[7] = molecular target: T7, TAOK3 (Homo sapiens, UniProt Q9H2K8); test: KINOMEscan; format: binding; details: read-out: Percent Control
T7 construct: purchased Eurofins DiscoverX KINOMEscan (scanMAX 468)
T7 sequence (Q9H2K8 whole entry): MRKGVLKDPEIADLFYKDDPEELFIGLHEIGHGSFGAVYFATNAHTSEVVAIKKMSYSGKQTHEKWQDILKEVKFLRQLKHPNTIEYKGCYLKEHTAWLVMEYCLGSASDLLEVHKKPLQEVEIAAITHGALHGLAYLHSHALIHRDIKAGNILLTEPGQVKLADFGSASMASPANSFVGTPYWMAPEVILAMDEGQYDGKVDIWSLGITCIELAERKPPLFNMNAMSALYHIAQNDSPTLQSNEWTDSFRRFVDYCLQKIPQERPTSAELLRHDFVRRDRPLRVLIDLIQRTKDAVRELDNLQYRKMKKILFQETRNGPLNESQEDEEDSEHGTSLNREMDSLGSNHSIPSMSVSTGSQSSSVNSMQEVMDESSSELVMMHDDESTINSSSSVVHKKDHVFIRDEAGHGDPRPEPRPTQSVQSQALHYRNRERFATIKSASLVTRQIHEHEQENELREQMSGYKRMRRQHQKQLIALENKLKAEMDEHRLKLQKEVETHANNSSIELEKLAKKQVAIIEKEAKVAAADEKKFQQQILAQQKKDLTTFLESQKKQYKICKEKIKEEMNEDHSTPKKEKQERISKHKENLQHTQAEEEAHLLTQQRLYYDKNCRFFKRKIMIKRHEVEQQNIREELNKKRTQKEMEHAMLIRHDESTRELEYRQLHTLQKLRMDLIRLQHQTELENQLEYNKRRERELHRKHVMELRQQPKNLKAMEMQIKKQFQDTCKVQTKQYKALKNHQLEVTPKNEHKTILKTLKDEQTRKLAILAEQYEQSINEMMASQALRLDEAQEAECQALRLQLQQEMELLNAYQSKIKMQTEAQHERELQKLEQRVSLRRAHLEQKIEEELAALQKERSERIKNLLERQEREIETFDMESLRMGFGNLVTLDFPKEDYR

[8] = molecular target: T8, RIOK2 (Homo sapiens, UniProt Q9BVS4); test: KINOMEscan; format: binding; details: read-out: Percent Control
T8 construct: purchased Eurofins DiscoverX KINOMEscan (scanMAX 468)
T8 sequence (Q9BVS4 whole entry): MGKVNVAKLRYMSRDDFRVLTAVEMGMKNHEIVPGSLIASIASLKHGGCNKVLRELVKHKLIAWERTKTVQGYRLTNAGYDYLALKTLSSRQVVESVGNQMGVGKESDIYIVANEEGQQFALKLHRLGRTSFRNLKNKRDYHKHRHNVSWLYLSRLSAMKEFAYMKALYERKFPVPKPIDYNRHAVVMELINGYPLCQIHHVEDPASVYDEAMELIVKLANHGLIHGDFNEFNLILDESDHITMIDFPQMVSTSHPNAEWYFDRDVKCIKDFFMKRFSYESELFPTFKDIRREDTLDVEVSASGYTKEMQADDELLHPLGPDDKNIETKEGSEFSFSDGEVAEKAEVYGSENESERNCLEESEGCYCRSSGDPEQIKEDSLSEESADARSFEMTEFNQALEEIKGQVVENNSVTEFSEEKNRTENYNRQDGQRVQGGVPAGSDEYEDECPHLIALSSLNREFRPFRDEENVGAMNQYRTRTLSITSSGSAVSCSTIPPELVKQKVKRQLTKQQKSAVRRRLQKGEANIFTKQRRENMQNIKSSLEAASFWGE

[9] = molecular target: T9, DMPK2 (Homo sapiens, UniProt Q6DT37); test: KINOMEscan; format: binding; details: read-out: Percent Control
T9 construct: purchased Eurofins DiscoverX KINOMEscan (scanMAX 468)

[10] = molecular target: T10, AKT1 (Homo sapiens, UniProt P31749); test: KINOMEscan; format: binding; details: read-out: Percent Control
T10 construct: purchased Eurofins DiscoverX KINOMEscan (scanMAX 468)

[11] = molecular target: T11, PFCDPK1(P.falciparum) (Plasmodium falciparum, UniProt P62344); test: KINOMEscan; format: binding; details: read-out: Percent Control
T11 construct: purchased Eurofins DiscoverX KINOMEscan (scanMAX 468)
T11 sequence (P62344 whole entry): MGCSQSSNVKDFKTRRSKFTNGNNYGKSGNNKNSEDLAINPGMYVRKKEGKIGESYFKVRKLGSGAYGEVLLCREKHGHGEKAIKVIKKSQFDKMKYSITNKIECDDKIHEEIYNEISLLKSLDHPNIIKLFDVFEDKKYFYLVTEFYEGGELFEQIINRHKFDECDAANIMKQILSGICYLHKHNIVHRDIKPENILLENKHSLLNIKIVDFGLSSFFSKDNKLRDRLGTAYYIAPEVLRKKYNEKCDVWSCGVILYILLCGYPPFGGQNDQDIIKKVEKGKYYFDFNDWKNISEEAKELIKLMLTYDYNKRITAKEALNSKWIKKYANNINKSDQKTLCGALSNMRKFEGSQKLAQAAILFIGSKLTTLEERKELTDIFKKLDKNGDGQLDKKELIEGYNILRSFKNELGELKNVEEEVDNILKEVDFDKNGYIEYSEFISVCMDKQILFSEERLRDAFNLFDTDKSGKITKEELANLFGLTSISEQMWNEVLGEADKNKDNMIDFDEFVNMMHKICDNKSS

[12] = molecular target: T12, PKAC-alpha (Homo sapiens, UniProt P17612); test: KINOMEscan; format: binding; details: read-out: Percent Control
T12 construct: purchased Eurofins DiscoverX KINOMEscan (scanMAX 468)

[13] = molecular target: T13, DCAMKL1 (Homo sapiens, UniProt O15075); test: KINOMEscan; format: binding; details: read-out: Percent Control
T13 construct: purchased Eurofins DiscoverX KINOMEscan (scanMAX 468)

[14] = tested on: HuH7; design: method as in ref 14 (a number printed in a supplementary file, which may have a reference list of its own: not looked up in the article's list); details: DB18[a], footnote not given; read-out: Cytotoxic studies IC50 HuH7; cited from earlier work
[15] = molecular target: T14, LATS2 (Homo sapiens, UniProt Q9NRM7); test: KINOMEscan; format: binding; details: read-out: Percent Control
T14 construct: purchased Eurofins DiscoverX KINOMEscan (scanMAX 468)

[16] = molecular target: T15, FLT3-autoinhibited (Homo sapiens, UniProt P36888); test: KINOMEscan; format: binding; details: read-out: Percent Control
T15 construct: purchased Eurofins DiscoverX KINOMEscan (scanMAX 468)

[17] = molecular target: T16, RET(V804L) (Homo sapiens, UniProt P07949, V804L); test: KINOMEscan; format: binding; details: read-out: Percent Control
T16 construct: purchased Eurofins DiscoverX KINOMEscan (scanMAX 468)

[18] = molecular target: T17, MELK (Homo sapiens, UniProt Q14680); test: KINOMEscan; format: binding; details: read-out: Percent Control
T17 construct: purchased Eurofins DiscoverX KINOMEscan (scanMAX 468)

[19] = molecular target: T18, FGR (Homo sapiens, UniProt P09769); test: KINOMEscan; format: binding; details: read-out: Percent Control
T18 construct: purchased Eurofins DiscoverX KINOMEscan (scanMAX 468)

[20] = molecular target: T19, RIOK3 (Homo sapiens, UniProt O14730); test: KINOMEscan; format: binding; details: read-out: Percent Control
T19 construct: purchased Eurofins DiscoverX KINOMEscan (scanMAX 468)

[21] = molecular target: T20, CDK9 (Homo sapiens, UniProt P50750); test: KINOMEscan; format: binding; details: read-out: Percent Control
T20 construct: purchased Eurofins DiscoverX KINOMEscan (scanMAX 468)

[22] = molecular target: T21, CAMK2B (Homo sapiens, UniProt Q13554); test: KINOMEscan; format: binding; details: read-out: Percent Control
T21 construct: purchased Eurofins DiscoverX KINOMEscan (scanMAX 468)
T21 sequence (Q13554 whole entry): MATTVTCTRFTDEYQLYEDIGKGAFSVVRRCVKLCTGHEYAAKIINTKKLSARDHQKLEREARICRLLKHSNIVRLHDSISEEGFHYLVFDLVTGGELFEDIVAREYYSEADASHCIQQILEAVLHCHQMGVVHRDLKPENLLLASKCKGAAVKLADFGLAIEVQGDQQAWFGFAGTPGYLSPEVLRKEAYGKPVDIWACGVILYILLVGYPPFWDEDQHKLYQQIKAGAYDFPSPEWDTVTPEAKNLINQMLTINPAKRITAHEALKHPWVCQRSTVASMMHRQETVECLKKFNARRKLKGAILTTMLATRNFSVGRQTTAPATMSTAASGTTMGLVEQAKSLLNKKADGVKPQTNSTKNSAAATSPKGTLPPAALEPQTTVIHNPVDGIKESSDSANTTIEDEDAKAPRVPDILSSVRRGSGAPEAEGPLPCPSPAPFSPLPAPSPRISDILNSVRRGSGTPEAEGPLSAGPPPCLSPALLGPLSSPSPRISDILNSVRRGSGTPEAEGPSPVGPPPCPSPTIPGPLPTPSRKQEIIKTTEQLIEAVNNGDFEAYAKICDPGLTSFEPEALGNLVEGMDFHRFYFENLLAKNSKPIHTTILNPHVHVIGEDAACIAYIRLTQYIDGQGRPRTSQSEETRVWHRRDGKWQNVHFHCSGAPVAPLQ

[23] = molecular target: T22, CASK (Homo sapiens, UniProt O14936); test: KINOMEscan; format: binding; details: read-out: Percent Control
T22 construct: purchased Eurofins DiscoverX KINOMEscan (scanMAX 468)

[24] = molecular target: T23, DRAK2 (Homo sapiens, UniProt O94768); test: KINOMEscan; format: binding; details: read-out: Percent Control
T23 construct: purchased Eurofins DiscoverX KINOMEscan (scanMAX 468)

[25] = molecular target: T24, MEK5 (Homo sapiens, UniProt Q13163); test: KINOMEscan; format: binding; details: read-out: Percent Control
T24 construct: purchased Eurofins DiscoverX KINOMEscan (scanMAX 468)

[26] = molecular target: T25, ITK (Homo sapiens, UniProt Q08881); test: KINOMEscan; format: binding; details: read-out: Percent Control
T25 construct: purchased Eurofins DiscoverX KINOMEscan (scanMAX 468)

[27] = molecular target: T26, PAK2 (Homo sapiens, UniProt Q13177); test: KINOMEscan; format: binding; details: read-out: Percent Control
T26 construct: purchased Eurofins DiscoverX KINOMEscan (scanMAX 468)

[28] = molecular target: T27, ACVR2B (Homo sapiens, UniProt Q13705); test: KINOMEscan; format: binding; details: read-out: Percent Control
T27 construct: purchased Eurofins DiscoverX KINOMEscan (scanMAX 468)

[29] = molecular target: T28, RSK4(Kin.Dom.1-N-terminal) (Homo sapiens, UniProt Q9UK32); test: KINOMEscan; format: binding; details: read-out: Percent Control
T28 construct: RSK4(Kin.Dom.1-N-terminal); purchased Eurofins DiscoverX KINOMEscan (scanMAX 468)

[30] = molecular target: T29, BTK (Homo sapiens, UniProt Q06187); test: KINOMEscan; format: binding; details: read-out: Percent Control
T29 construct: purchased Eurofins DiscoverX KINOMEscan (scanMAX 468)

[31] = molecular target: T30, EPHB1 (Homo sapiens, UniProt P54762); test: KINOMEscan; format: binding; details: read-out: Percent Control
T30 construct: purchased Eurofins DiscoverX KINOMEscan (scanMAX 468)

[32] = molecular target: T31, MAST1 (Homo sapiens, UniProt Q9Y2H9); test: KINOMEscan; format: binding; details: read-out: Percent Control
T31 construct: purchased Eurofins DiscoverX KINOMEscan (scanMAX 468)

[33] = molecular target: T32, JNK1 (Homo sapiens, UniProt P45983); test: KINOMEscan; format: binding; details: read-out: Percent Control
T32 construct: purchased Eurofins DiscoverX KINOMEscan (scanMAX 468)
T32 sequence (P45983 whole entry): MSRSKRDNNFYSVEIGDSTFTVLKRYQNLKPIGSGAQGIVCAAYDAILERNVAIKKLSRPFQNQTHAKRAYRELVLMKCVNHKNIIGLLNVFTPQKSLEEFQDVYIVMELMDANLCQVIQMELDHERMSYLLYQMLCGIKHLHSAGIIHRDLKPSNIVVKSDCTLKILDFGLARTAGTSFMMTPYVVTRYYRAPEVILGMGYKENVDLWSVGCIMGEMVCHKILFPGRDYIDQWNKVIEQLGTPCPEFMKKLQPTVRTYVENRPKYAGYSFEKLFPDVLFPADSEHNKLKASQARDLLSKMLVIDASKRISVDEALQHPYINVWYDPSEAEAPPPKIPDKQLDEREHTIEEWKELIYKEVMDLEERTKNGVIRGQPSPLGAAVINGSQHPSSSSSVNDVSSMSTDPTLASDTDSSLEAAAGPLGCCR

[34] = molecular target: T33, MST1 (Homo sapiens, UniProt Q13043); test: KINOMEscan; format: binding; details: read-out: Percent Control
T33 construct: purchased Eurofins DiscoverX KINOMEscan (scanMAX 468)

[35] = molecular target: T34, VPS34 (Homo sapiens, UniProt Q8NEB9); test: KINOMEscan; format: binding; details: read-out: Percent Control
T34 construct: purchased Eurofins DiscoverX KINOMEscan (scanMAX 468)

[36] = molecular target: T35, PIP5K2C (Homo sapiens, UniProt Q8TBX8); test: KINOMEscan; format: binding; details: read-out: Percent Control
T35 construct: purchased Eurofins DiscoverX KINOMEscan (scanMAX 468)

[37] = molecular target: T36, TAK1 (Homo sapiens, UniProt O43318); test: KINOMEscan; format: binding; details: read-out: Percent Control
T36 construct: purchased Eurofins DiscoverX KINOMEscan (scanMAX 468)
T36 sequence (O43318 whole entry): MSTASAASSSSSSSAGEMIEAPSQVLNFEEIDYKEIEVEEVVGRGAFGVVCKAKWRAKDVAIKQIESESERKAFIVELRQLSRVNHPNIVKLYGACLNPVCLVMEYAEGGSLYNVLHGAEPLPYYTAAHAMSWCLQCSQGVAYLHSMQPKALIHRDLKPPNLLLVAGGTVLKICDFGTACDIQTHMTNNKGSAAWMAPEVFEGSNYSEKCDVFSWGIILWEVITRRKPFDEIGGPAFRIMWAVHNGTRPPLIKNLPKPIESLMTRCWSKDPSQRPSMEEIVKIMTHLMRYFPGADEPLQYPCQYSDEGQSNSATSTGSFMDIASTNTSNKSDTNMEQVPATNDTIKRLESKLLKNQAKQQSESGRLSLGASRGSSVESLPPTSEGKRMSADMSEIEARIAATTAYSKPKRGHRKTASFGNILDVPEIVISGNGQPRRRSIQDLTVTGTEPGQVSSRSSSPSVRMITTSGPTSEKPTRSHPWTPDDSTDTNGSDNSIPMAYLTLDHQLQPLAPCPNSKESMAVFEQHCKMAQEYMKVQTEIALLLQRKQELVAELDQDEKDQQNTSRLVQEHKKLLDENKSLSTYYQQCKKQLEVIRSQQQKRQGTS

[38] = tested on: EGFR(L747-T751del,Sins); test: KINOMEscan; format: binding, human; details: 1 μM
[39] = molecular target: T37, MAP4K2 (Homo sapiens, UniProt Q12851); test: KINOMEscan; format: binding; details: read-out: Percent Control
T37 construct: purchased Eurofins DiscoverX KINOMEscan (scanMAX 468)
T37 sequence (Q12851 whole entry): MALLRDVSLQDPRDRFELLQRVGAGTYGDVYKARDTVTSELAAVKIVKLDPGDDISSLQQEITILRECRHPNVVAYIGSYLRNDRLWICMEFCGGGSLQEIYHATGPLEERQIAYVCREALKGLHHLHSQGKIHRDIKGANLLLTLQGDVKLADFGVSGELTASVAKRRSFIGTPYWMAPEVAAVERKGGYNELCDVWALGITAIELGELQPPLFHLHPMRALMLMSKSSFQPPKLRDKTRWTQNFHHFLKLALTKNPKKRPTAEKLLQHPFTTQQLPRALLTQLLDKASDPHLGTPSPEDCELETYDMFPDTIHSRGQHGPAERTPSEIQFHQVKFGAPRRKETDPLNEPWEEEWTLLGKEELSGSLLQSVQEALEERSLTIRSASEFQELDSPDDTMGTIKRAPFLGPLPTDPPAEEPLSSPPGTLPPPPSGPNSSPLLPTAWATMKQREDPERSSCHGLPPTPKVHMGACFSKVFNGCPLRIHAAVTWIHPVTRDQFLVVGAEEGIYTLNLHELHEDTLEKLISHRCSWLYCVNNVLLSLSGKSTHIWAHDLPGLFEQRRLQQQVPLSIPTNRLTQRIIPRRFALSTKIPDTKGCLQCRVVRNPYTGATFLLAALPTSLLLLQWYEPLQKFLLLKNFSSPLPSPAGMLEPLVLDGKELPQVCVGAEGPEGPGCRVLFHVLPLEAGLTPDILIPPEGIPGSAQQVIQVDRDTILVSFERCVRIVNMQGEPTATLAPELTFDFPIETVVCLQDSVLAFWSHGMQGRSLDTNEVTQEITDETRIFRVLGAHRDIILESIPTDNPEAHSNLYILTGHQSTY

[40] = molecular target: T38, DRAK1 (Homo sapiens, UniProt Q9UEE5); test: KINOMEscan; format: binding; details: read-out: Percent Control
T38 construct: purchased Eurofins DiscoverX KINOMEscan (scanMAX 468)
T38 sequence (Q9UEE5 whole entry): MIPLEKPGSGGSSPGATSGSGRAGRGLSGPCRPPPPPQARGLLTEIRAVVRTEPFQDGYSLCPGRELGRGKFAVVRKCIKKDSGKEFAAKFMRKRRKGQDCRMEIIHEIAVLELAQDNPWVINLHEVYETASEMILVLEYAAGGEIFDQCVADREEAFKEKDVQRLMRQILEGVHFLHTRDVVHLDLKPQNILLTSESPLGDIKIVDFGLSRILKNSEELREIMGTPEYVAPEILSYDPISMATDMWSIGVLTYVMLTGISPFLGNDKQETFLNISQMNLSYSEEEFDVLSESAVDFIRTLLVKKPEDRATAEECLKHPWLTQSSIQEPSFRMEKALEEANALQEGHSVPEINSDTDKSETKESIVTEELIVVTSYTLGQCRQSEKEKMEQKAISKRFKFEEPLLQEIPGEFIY

[41] = molecular target: T39, NEK2 (Homo sapiens, UniProt P51955); test: KINOMEscan; format: binding; details: read-out: Percent Control
T39 construct: purchased Eurofins DiscoverX KINOMEscan (scanMAX 468)

[42] = molecular target: T40, TSSK3 (Homo sapiens, UniProt Q96PN8); test: KINOMEscan; format: binding; details: read-out: Percent Control
T40 construct: purchased Eurofins DiscoverX KINOMEscan (scanMAX 468)

Cc1ccc(-n2cc(COc3cccc4cnc(Nc5cccc(Cl)c5)nc34)nn2)c([N+](=O)[O-])c1 [DB18]
remaining binding at 1 µM [1]: 100% | remaining binding at 1 µM [2]: 59% | remaining binding at 1 µM [3]: 100% | remaining binding at 1 µM [4]: 82% | remaining binding at 1 µM [5]: 100% | remaining binding at 1 µM [6]: 100% | remaining binding at 1 µM [7]: 100% | remaining binding at 1 µM [8]: 100% | remaining binding at 1 µM [9]: 100% | remaining binding at 1 µM [10]: 87% | remaining binding at 1 µM [11]: 100% | remaining binding at 1 µM [12]: 100% | remaining binding at 1 µM [13]: 88% | IC50 [14]: 25 µM | remaining binding at 1 µM [15]: 100% | remaining binding at 1 µM [16]: 100% | remaining binding at 1 µM [17]: 100% | remaining binding at 1 µM [18]: 100% | remaining binding at 1 µM [19]: 96% | remaining binding at 1 µM [20]: 100% | remaining binding at 1 µM [21]: 100% | remaining binding at 1 µM [22]: 100% | remaining binding at 1 µM [23]: 99% | remaining binding at 1 µM [24]: 100% | remaining binding at 1 µM [25]: 95% | remaining binding at 1 µM [26]: 100% | remaining binding at 1 µM [27]: 100% | remaining binding at 1 µM [28]: 100% | remaining binding at 1 µM [29]: 96% | remaining binding at 1 µM [30]: 100% | remaining binding at 1 µM [31]: 100% | remaining binding at 1 µM [32]: 79% | remaining binding at 1 µM [33]: 93% | remaining binding at 1 µM [34]: 100% | remaining binding at 1 µM [35]: 100% | remaining binding at 1 µM [36]: 28% | remaining binding at 1 µM [37]: 100% | Percent Control [38]: 100 % Ctrl | remaining binding at 1 µM [39]: 100% | remaining binding at 1 µM [40]: 100% | remaining binding at 1 µM [41]: 100% | remaining binding at 1 µM [42]: 96%
